Reference: ChEMBL document CHEMBL4699611, “Synthesis and evaluation of HIF-1α inhibitory activities of novel panaxadiol derivatives” (Bioorg Med Chem Lett, 2020)
pIC50: −log10 of the molar value.

Key:
Assay type in all cases: cell-based
[1] = target: Hypoxia-inducible factor 1-alpha (Homo sapiens, UniProt Q16665); experiment: Inhibition of hypoxia-induced HIF1alpha transcriptional activity in human Hep3B cells co-transfected with luciferase reporter plasmid containing six copies of HREs and pRL-CMV vector assessed as reduction in luciferase activity incubated for 24 hrs under hypoxic condition by HRE-dependent dual luciferase reporter gene assay
Hep 3B2 [2] = experiment: Cytotoxicity against human Hep3B cells assessed as reduction in cell viability incubated for 24 hrs under normaxic condition by MTT assay
Hep 3B2 [3] = experiment: Cytotoxicity against human Hep3B cells assessed as reduction in cell viability at 30 uM incubated for 24 hrs in presence of 20% O2 by MTT assay; conditions: hep 3b2, 24 h

Row | Compound | pIC50 [1] | pIC50 (Hep 3B2 [2]) | inhibition [1] | Activity (Hep 3B2 [3])
1 | CC1(C)CCC[C@](C)([C@H]2CC[C@]3(C)[C@@H]2[C@H](O)C[C@@H]2[C@@]4(C)CC(=C\c5ccc(F)cc5)/C(=N\NC(=N)N)C(C)(C)[C@@H]4CC[C@]23C)O1 | 5.32 | < 4.00 |  | 
2 | CC1(C)CCC[C@](C)([C@H]2CC[C@]3(C)[C@@H]2[C@H](O)C[C@@H]2[C@@]4(C)CC/C(=N\Nc5cccc([N+](=O)[O-])c5)C(C)(C)[C@@H]4CC[C@]23C)O1 | 4.21 | < 4.00 |  | 
3 | CC1(C)CCC[C@](C)([C@H]2CC[C@]3(C)[C@@H]2[C@H](OC(=O)Cn2nnnc2-c2ccccc2)C[C@@H]2[C@@]4(C)CCC(=O)C(C)(C)[C@@H]4CC[C@]23C)O1 | < 4.00 | < 4.00 |  | 
4 | CC1(C)CCC[C@](C)([C@H]2CC[C@]3(C)[C@@H]2[C@H](O)C[C@@H]2[C@@]4(C)CC(=C\c5ccccc5F)/C(=N\NC(N)=O)C(C)(C)[C@@H]4CC[C@]23C)O1 | 5.23 | 5.25 |  | 
5 | CC1(C)CCC[C@](C)([C@H]2CC[C@]3(C)[C@@H]2[C@H](O)C[C@@H]2[C@@]4(C)CC/C(=N\Nc5ccc(Cl)cc5)C(C)(C)[C@@H]4CC[C@]23C)O1 | 4.59 | < 4.00 |  | 
6 | Cc1ccc(N/N=C2\CC[C@]3(C)[C@H]4C[C@@H](O)[C@@H]5[C@@H]([C@@]6(C)CCCC(C)(C)O6)CC[C@@]5(C)[C@]4(C)CC[C@H]3C2(C)C)cc1 | 5.15 | < 4.00 |  | 
7 | CC1(C)CCC[C@](C)([C@H]2CC[C@]3(C)[C@@H]2[C@H](OC(=O)Cn2nnnc2-c2ccc(Cl)cc2)C[C@@H]2[C@@]4(C)CCC(=O)C(C)(C)[C@@H]4CC[C@]23C)O1 | 4.91 | 4.37 |  | 
8 | CC1(C)CCC[C@](C)([C@H]2CC[C@]3(C)[C@@H]2[C@H](O)C[C@@H]2[C@@]4(C)CC(=C\c5cccc(F)c5)/C(=N\NC(N)=O)C(C)(C)[C@@H]4CC[C@]23C)O1 | 5.46 | 5.28 |  | 
9 | CC1(C)CCC[C@](C)([C@H]2CC[C@]3(C)[C@@H]2[C@H](OC(=O)Cn2nnnc2-c2ccc4c(c2)OCO4)C[C@@H]2[C@@]4(C)CCC(=O)C(C)(C)[C@@H]4CC[C@]23C)O1 | 4.39 | < 4.00 |  | 
10 | Cc1ccc(/C=C2\C[C@]3(C)[C@H]4C[C@@H](O)[C@@H]5[C@@H]([C@@]6(C)CCCC(C)(C)O6)CC[C@@]5(C)[C@]4(C)CC[C@H]3C(C)(C)\C2=N\NC(=N)N)cc1 | 4.42 | 4.95 |  | 
11 | CC1(C)CCC[C@](C)([C@H]2CC[C@]3(C)[C@@H]2[C@H](O)C[C@@H]2[C@@]4(C)CC(=C\c5ccc(Cl)cc5)/C(=N\NC(N)=S)C(C)(C)[C@@H]4CC[C@]23C)O1 | < 4.00 | < 4.00 |  | 
12 | CC1(C)CCC[C@](C)([C@H]2CC[C@]3(C)[C@@H]2[C@H](OC(=O)CNc2nnn[nH]2)C[C@@H]2[C@@]4(C)CCC(=O)C(C)(C)[C@@H]4CC[C@]23C)O1 | 4.44 | < 4.00 |  | 
13 | COc1ccc(-c2nnnn2CC(=O)O[C@@H]2C[C@@H]3[C@@]4(C)CCC(=O)C(C)(C)[C@@H]4CC[C@@]3(C)[C@]3(C)CC[C@H]([C@@]4(C)CCCC(C)(C)O4)[C@@H]23)cc1 | < 4.00 | < 4.00 |  | 
14 | CC1(C)CCC[C@](C)([C@H]2CC[C@]3(C)[C@@H]2[C@H](O)C[C@@H]2[C@@]4(C)CC(=C\c5ccc(O)cc5)/C(=N\NC(=N)N)C(C)(C)[C@@H]4CC[C@]23C)O1 | 5.21 | 5.20 |  | 
15 | CC1(C)CCC[C@](C)([C@H]2CC[C@]3(C)[C@@H]2[C@H](O)C[C@@H]2[C@@]4(C)CC(=C\c5ccc(F)cc5)/C(=N\NC(N)=S)C(C)(C)[C@@H]4CC[C@]23C)O1 | 5.05 | 4.62 |  | 
16 | CC1(C)CCC[C@](C)([C@H]2CC[C@]3(C)[C@@H]2[C@H](O)C[C@@H]2[C@@]4(C)CC/C(=N\Nc5ccc(F)cc5F)C(C)(C)[C@@H]4CC[C@]23C)O1 | 4.89 | < 4.00 |  | 

Row | Compound | pIC50 [1] | pIC50 (Hep 3B2 [2]) | inhibition [1] | Activity (Hep 3B2 [3])
17 | CC1(C)CCC[C@](C)([C@H]2CC[C@]3(C)[C@@H]2[C@H](O)C[C@@H]2[C@@]4(C)CC(=C\c5ccc(Cl)cc5)/C(=N\NC(N)=O)C(C)(C)[C@@H]4CC[C@]23C)O1 | 5.26 | 4.95 |  | 
18 | CC1(C)CCC[C@](C)([C@H]2CC[C@]3(C)[C@@H]2[C@H](O)C[C@@H]2[C@@]4(C)CC/C(=N\Nc5ccc(Cl)cc5Cl)C(C)(C)[C@@H]4CC[C@]23C)O1 | 5.43 | < 4.00 | Dose-dependent effect | Non-Toxic
19 | CC1(C)CCC[C@](C)([C@H]2CC[C@]3(C)[C@@H]2[C@H](O)C[C@@H]2[C@@]4(C)CC/C(=N\Nc5ccccc5F)C(C)(C)[C@@H]4CC[C@]23C)O1 | 5.00 | < 4.00 |  | 
20 | CC1(C)CCC[C@](C)([C@H]2CC[C@]3(C)[C@@H]2[C@H](O)C[C@@H]2[C@@]4(C)CC[C@H](O)C(C)(C)[C@@H]4CC[C@]23C)O1 [PANAXADIOL] | 5.04 | 4.50 |  | 
21 | CC1(C)CCC[C@](C)([C@H]2CC[C@]3(C)[C@@H]2[C@H](O)C[C@@H]2[C@@]4(C)CC/C(=N\Nc5cccc(F)c5)C(C)(C)[C@@H]4CC[C@]23C)O1 | 4.17 | < 4.00 |  | 
22 | CC1(C)CCC[C@](C)([C@H]2CC[C@]3(C)[C@@H]2[C@H](O)C[C@@H]2[C@@]4(C)CC/C(=N\Nc5ccc(F)cc5)C(C)(C)[C@@H]4CC[C@]23C)O1 | 4.67 | < 4.00 |  | 
23 | Cc1ccc(/C=C2\C[C@]3(C)[C@H]4C[C@@H](O)[C@@H]5[C@@H]([C@@]6(C)CCCC(C)(C)O6)CC[C@@]5(C)[C@]4(C)CC[C@H]3C(C)(C)\C2=N\NC(N)=O)cc1 | 5.01 | 5.39 |  | 
24 | Cc1cccc(N/N=C2\CC[C@]3(C)[C@H]4C[C@@H](O)[C@@H]5[C@@H]([C@@]6(C)CCCC(C)(C)O6)CC[C@@]5(C)[C@]4(C)CC[C@H]3C2(C)C)c1 | 4.25 | < 4.00 |  | 
25 | CC1(C)CCC[C@](C)([C@H]2CC[C@]3(C)[C@@H]2[C@H](O)C[C@@H]2[C@@]4(C)CC(=C\c5ccc(F)cc5)/C(=N\NC(N)=O)C(C)(C)[C@@H]4CC[C@]23C)O1 | 4.93 | < 4.00 |  | 
26 | CC1(C)CCC[C@](C)([C@H]2CC[C@]3(C)[C@@H]2[C@H](O)C[C@@H]2[C@@]4(C)CC/C(=N\Nc5ccccc5Cl)C(C)(C)[C@@H]4CC[C@]23C)O1 | < 4.00 | < 4.00 |  | 
27 | CC1(C)CCC[C@](C)([C@H]2CC[C@]3(C)[C@@H]2[C@H](O)C[C@@H]2[C@@]4(C)CC/C(=N\Nc5cccc(Cl)c5)C(C)(C)[C@@H]4CC[C@]23C)O1 | 4.44 | < 4.00 |  | 
28 | CC1(C)CCC[C@](C)([C@H]2CC[C@]3(C)[C@@H]2[C@H](OC(=O)CNc2cccc(-c4nnn[nH]4)c2)C[C@@H]2[C@@]4(C)CCC(=O)C(C)(C)[C@@H]4CC[C@]23C)O1 | < 4.00 | < 4.00 |  | 
29 | Cc1ccc(/C=C2\C[C@]3(C)[C@H]4C[C@@H](O)[C@@H]5[C@@H]([C@@]6(C)CCCC(C)(C)O6)CC[C@@]5(C)[C@]4(C)CC[C@H]3C(C)(C)\C2=N\NC(N)=S)cc1 | 5.21 | 4.37 |  | 
30 | COc1ccc(/C=C2\C[C@]3(C)[C@H]4C[C@@H](O)[C@@H]5[C@@H]([C@@]6(C)CCCC(C)(C)O6)CC[C@@]5(C)[C@]4(C)CC[C@H]3C(C)(C)\C2=N\NC(=N)N)cc1 | 5.24 | 5.21 |  | 
31 | Cc1ccccc1N/N=C1\CC[C@]2(C)[C@H]3C[C@@H](O)[C@@H]4[C@@H]([C@@]5(C)CCCC(C)(C)O5)CC[C@@]4(C)[C@]3(C)CC[C@H]2C1(C)C | 4.60 | < 4.00 |  | 
